Results on 22 compounds are retold here after patent US20250122183A1 (Pfizer Inc., priority 2023, published 2025).

Read-outs that look alike come from different tables or passages of the source.

One assay deals with KAT6A Full length enzyme (Homo sapiens (Human), UniProt Q92794). The assay is described as follows: KAT6A assay (SAMDI-MS acetylation of H3 1-21 peptide). It is filed as biochemical. Conditions: replicate number in parentheses.
Assay [1] has as its target KAT7+JADE1+EAF6+ING5 4 protein complex (Homo sapiens (Human), UniProt O95251). The assay is described as follows: KAT7 JADE1 assay (SAMDI-MS acetylation of H3 1-21 peptide). The assay is classed as biochemical. Conditions: replicate number in parentheses.
Setting [2] is: Morrison equation fit, read-out: KAT6A Ki (nM) (replicate number).
The mark [3] stands for this setting: Morrison equation fit, read-out: KAT7 JADE1 Ki (nM) (replicate number).
Setting [4] is: read-out: KAT6A Ki (nM) (replicate).
[5] abbreviates: read-out: KAT7 JADE1 Ki (nM) (replicate).

KAT6A Full length enzyme, sequence (Q92794 other isoform, or with tags, fused parts or gaps): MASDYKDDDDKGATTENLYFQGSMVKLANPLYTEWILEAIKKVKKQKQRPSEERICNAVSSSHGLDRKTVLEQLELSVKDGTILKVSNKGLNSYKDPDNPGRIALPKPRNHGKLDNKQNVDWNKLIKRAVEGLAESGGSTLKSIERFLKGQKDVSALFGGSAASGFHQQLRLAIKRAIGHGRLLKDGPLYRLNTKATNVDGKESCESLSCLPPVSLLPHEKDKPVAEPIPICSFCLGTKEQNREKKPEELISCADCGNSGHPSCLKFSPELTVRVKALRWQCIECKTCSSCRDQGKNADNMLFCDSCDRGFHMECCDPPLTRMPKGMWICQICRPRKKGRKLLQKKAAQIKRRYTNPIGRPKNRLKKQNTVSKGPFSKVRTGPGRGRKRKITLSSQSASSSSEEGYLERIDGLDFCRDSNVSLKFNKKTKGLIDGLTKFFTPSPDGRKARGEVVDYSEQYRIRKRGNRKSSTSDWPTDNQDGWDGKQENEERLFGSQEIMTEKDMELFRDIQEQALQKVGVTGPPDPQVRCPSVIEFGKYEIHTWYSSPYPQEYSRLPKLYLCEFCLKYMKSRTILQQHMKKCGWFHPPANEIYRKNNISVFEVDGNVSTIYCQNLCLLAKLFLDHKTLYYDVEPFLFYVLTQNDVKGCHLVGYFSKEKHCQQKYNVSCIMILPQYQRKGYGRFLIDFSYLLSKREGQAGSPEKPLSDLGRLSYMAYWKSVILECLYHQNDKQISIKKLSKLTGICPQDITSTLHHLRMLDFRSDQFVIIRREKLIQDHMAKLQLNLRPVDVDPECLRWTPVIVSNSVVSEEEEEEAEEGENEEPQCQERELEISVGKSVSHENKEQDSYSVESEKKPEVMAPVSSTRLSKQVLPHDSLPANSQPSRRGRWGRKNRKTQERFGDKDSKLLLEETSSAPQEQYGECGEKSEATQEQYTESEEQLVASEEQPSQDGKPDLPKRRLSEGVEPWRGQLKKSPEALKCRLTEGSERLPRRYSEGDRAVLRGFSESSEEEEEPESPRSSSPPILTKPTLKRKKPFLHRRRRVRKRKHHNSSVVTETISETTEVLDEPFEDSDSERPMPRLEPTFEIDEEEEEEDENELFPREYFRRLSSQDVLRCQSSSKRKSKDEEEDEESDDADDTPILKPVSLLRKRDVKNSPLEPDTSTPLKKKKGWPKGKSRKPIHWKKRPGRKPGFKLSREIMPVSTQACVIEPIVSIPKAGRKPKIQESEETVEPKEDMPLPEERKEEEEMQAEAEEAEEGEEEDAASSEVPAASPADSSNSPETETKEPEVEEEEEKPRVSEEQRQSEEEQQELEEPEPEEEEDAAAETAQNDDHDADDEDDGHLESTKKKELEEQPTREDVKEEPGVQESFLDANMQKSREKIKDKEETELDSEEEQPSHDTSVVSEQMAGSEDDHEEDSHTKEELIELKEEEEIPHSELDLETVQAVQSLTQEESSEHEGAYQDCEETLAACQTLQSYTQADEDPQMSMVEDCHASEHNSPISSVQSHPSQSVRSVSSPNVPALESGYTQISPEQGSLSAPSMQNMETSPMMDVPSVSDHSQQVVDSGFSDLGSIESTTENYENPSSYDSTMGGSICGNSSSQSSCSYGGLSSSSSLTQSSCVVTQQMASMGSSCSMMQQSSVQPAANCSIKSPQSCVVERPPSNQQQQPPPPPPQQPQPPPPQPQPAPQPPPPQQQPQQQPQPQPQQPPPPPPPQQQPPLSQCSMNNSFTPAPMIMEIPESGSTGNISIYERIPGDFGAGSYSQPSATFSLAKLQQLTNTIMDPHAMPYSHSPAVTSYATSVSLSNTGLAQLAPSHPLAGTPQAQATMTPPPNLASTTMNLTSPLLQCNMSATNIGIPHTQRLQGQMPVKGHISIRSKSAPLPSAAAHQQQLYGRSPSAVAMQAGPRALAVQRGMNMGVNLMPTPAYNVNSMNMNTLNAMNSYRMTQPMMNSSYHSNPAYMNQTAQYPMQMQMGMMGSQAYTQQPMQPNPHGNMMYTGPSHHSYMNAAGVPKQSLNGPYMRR

As for `COc1cc2c(NS(=O)(=O)c3c(OC)cc(C4CN(C)CCC4(F)F)cc3OC)noc2cc1Nc1cc(C2CC2)n[nH]1` (single isomer, unassigned) [Example 175, N-{6-[(3-cyclopropyl-1 H-pyrazol-5-yl)amino]-5-methoxy-1,2-benzoxazol-3-yl}-4-(4,4-difluoro-1-methylpiperidin-3-yl)-2,6-dimethoxybenzene-1-sulfonamide], the figures for the Ki (at KAT6A Full length enzyme (setting [2]); in assay [1] (setting [3])) were 0.4 nM and 1 nM, respectively.
Take `COc1cc2c(NS(=O)(=O)c3c(OC)cc(CN4CC(C)C4)cc3OC)noc2cc1Nc1cc(C2CC2)n[nH]1` [Example 200, N-{6-[(3-cyclopropyl-1 H-pyrazol-5-yl)amino]-5-methoxy-1,2-benzoxazol-3-yl}-2,6-dimethoxy-4-[(3-methylazetidin-1-yl)methyl]benzene-1-sulfonamide]: the Ki on KAT6A Full length enzyme (setting [2]) was 2.1 nM; in assay [1] (setting [3]), 17.2 nM.
With `COc1cc2c(NS(=O)(=O)c3c(OC)cc(C(=O)N4CC(F)C4)cc3OC)noc2cc1Nc1cc(C2CC2)n[nH]1` [Example 262, N-{6-[(3-cyclopropyl-1H-pyrazol-5-yl)amino]-5-methoxy-1,2-benzoxazol-3-yl}-4-(3-fluoroazetidine-1-carbonyl)-2,6-dimethoxybenzene-1-sulfonamide], the Ki at KAT6A Full length enzyme (setting [4]) was determined as 1 nM; in assay [1] (setting [5]), 8.1 nM.
As for `CCN1CCOC(c2cc(OC)c(S(=O)(=O)Nc3noc4cc(Nc5cc(C6CC6)n[nH]5)c(OC)cc34)c(OC)c2)C1` (single isomer, unassigned) [Example 157, N-{6-[(3-cyclopropyl-1 H-pyrazol-5-yl)amino]-5-methoxy-1,2-benzoxazol-3-yl}-4-(4-ethylmorpholin-2-yl)-2,6-dimethoxybenzene-1-sulfonamide], the Ki is 2.5 nM at KAT6A Full length enzyme (setting [2]) and 11.6 nM in assay [1] (setting [3]).
Take `CCOc1cc(C)c(F)cc1S(=O)(=O)Nc1noc2cc(Nc3n[nH]cc3F)c(OC)cc12` [Example 139, 2-Ethoxy-5-fluoro-N-{6-[(4-fluoro-1 H-pyrazol-3-yl)amino]-5-methoxy-1,2-benzoxazol-3-yl}-4-methylbenzene-1-sulfonamide]: the Ki on KAT6A Full length enzyme (setting [2]) came out at 0.1 nM; in assay [1] (setting [3]) it was 128 nM.
For `COc1cc2c(NS(=O)(=O)c3c(OC)cc(C4CCCCN4C)cc3OC)noc2cc1Nc1cc(C2CC2)n[nH]1` (single isomer, unassigned) [Example 172, N-{6-[(3-cyclopropyl-1 H-pyrazol-5-yl)amino]-5-methoxy-1,2-benzoxazol-3-yl}-2,6-dimethoxy-4-(1-methylpiperidin-2-yl)benzene-1-sulfonamide], the Ki on KAT6A Full length enzyme (setting [2]) was 4.4 nM; in assay [1] (setting [3]), 34.1 nM.
As to `COCC(OC)c1cc(OC)c(S(=O)(=O)Nc2noc3cc(Nc4cc(C5CC5)[nH]n4)c(OC)cc23)c(OC)c1` (single isomer, unassigned) [Example 274, N-{6-[(5-cyclopropyl-1 H-pyrazol-3-yl)amino]-5-methoxy-1,2-benzoxazol-3-yl}-4-(1,2-dimethoxyethyl)-2,6-dimethoxybenzene-1-sulfonamide], the inhibition constant (Ki) on KAT6A Full length enzyme (setting [4]) turned out to be 2.8 nM; in assay [1] (setting [5]), 6.9 nM.
Consider `COc1cc2c(NS(=O)(=O)c3c(OC)cc(C(C)N4CC(F)C4)cc3OC)noc2cc1Nc1cc(C2CC2)[nH]n1` (single isomer, unassigned) [Example 210, N-{6-[(5-cyclopropyl-1H-pyrazol-3-yl)amino]-5-methoxy-1,2-benzoxazol-3-yl}-4-[1-(3-fluoroazetidin-1-yl)ethyl]-2,6-dimethoxybenzene-1-sulfonamide], for which the Ki was found to be 1.2 nM at KAT6A Full length enzyme (setting [2]) and 6.6 nM in assay [1] (setting [3]).
With `COCC(OC)c1cc(OC)c(S(=O)(=O)Nc2noc3cc(Nc4cc(C5CC5)[nH]n4)c(OC)cc23)c(OC)c1` (single isomer, unassigned) [Example 275, N-{6-[(5-cyclopropyl-1H-pyrazol-3-yl)amino]-5-methoxy-1,2-benzoxazol-3-yl}-4-(1,2-dimethoxyethyl)-2,6-dimethoxybenzene-1-sulfonamide], the Ki on KAT6A Full length enzyme (setting [4]) was 1.1 nM; in assay [1] (setting [5]), 9.7 nM.
For `COc1cc2c(NS(=O)(=O)c3c(OC)cccc3OC)noc2cc1Nc1[nH]nc(C)c1C(N)=O` [Example 57, 5-({3-[(2,6-dimethoxybenzene-1-sulfonyl)amino]-5-methoxy-1,2-benzoxazol-6-yl}amino)-3-methyl-1H-pyrazole-4-carboxamide], the Ki at KAT6A Full length enzyme (setting [2]) was 6.2 nM; in assay [1] (setting [3]) it was over 2340 nM.
The corresponding values for `COc1cc2c(NS(=O)(=O)c3c(OC)cc(C4CCCN4CC(F)F)cc3OC)noc2cc1Nc1cc(C2CC2)n[nH]1` (single isomer, unassigned) [Example 166, N-{6-[(3-cyclopropyl-1 H-pyrazol-5-yl)amino]-5-methoxy-1,2-benzoxazol-3-yl}-4-[1-(2,2-difluoroethyl)pyrrolidin-2-yl]-2,6-dimethoxybenzene-1-sulfonamide] are 1.6 nM and 8.5 nM.
Take `COc1cc2c(NS(=O)(=O)c3c(OC)cc(C4CCN([C@H]5CCOC5)C4)cc3OC)noc2cc1Nc1cc(C2CC2)n[nH]1` (single isomer, unassigned) [Example 162]: the Ki at KAT6A Full length enzyme (setting [2]) worked out at 1.2 nM; in assay [1] (setting [3]), 8.9 nM.
Turning to `COc1cc2c(NS(=O)(=O)c3c(OC)cc(C4CCOC4)cc3OC)noc2cc1Nc1cc(C2CC2)n[nH]1` (single isomer, unassigned) [Example 266, N-{6-[(3-cyclopropyl-1H-pyrazol-5-yl)amino]-5-methoxy-1,2-benzoxazol-3-yl}-2,6-dimethoxy-4-(oxolan-3-yl)benzene-1-sulfonamide], the results for the Ki (at KAT6A Full length enzyme (setting [4]); in assay [1] (setting [5])) were 1.6 nM and 13.6 nM, respectively.
Regarding `CCN1CCOC(c2cc(OC)c(S(=O)(=O)Nc3noc4cc(Nc5cc(C6CC6)n[nH]5)c(OC)cc34)c(OC)c2)C1` (single isomer, unassigned) [Example 156, N-{6-[(3-cyclopropyl-1 H-pyrazol-5-yl)amino]-5-methoxy-1,2-benzoxazol-3-yl}-4-(4-ethylmorpholin-2-yl)-2,6-dimethoxybenzene-1-sulfonamide], the figures for the Ki (on KAT6A Full length enzyme (setting [2]); in assay [1] (setting [3])) were 0.8 nM and 4 nM, respectively.
For `CCN1CCCCC1c1cc(OC)c(S(=O)(=O)Nc2noc3cc(Nc4cc(C5CC5)n[nH]4)c(OC)cc23)c(OC)c1` (single isomer, unassigned) [Example 173, N-{6-[(3-cyclopropyl-1 H-pyrazol-5-yl)amino]-5-methoxy-1,2-benzoxazol-3-yl}-4-(1-ethylpiperidin-2-yl)-2,6-dimethoxybenzene-1-sulfonamide], the Ki on KAT6A Full length enzyme (setting [2]) came out at 7.5 nM; in assay [1] (setting [3]), 114 nM.
With `COc1cc2c(NS(=O)(=O)c3c(OC)cc(C4CC(F)CCN4C)cc3OC)noc2cc1Nc1cc(C2CC2)[nH]n1` (stereo not drawn) [Example 192, N-{6-[(5-cyclopropyl-1 H-pyrazol-3-yl)amino]-5-methoxy-1,2-benzoxazol-3-yl}-4-trans(4-fluoro-1-methylpiperidin-2-yl)-2,6-dimethoxybenzene-1-sulfonamide], the results for the Ki (on KAT6A Full length enzyme (setting [2]); in assay [1] (setting [3])) were 2.4 nM and 22.2 nM, respectively.
As for `COCc1cc(Nc2cc3onc(NS(=O)(=O)c4c(OC)cccc4OC)c3cc2OC)[nH]n1` [Example 91, 2,6-dimethoxy-N-(5-methoxy-6-{[3-(methoxymethyl)-1H-pyrazol-5-yl]amino}-1,2-benzoxazol-3-yl)benzene-1-sulfonamide], the Ki amounted to 2.3 nM at KAT6A Full length enzyme (setting [2]) and 802 nM in assay [1] (setting [3]).
Regarding `COc1cc2c(NS(=O)(=O)c3c(OC)cc(C(=O)N4CC[C@@H](F)C4)cc3OC)noc2cc1Nc1cc(C2CC2)n[nH]1` [Example 258, N-{6-[(3-cyclopropyl-1H-pyrazol-5-yl)amino]-5-methoxy-1,2-benzoxazol-3-yl}-4-[(3R)-3-fluoropyrrolidine-1-carbonyl]-2,6-dimethoxybenzene-1-sulfonamide], the Ki on KAT6A Full length enzyme (setting [4]) amounted to 1 nM; in assay [1] (setting [5]), 5.9 nM.
With `CCc1cc(Nc2cc3onc(NS(=O)(=O)c4c(OC)cc(C5COCCO5)cc4OC)c3cc2OC)[nH]n1` (single isomer, unassigned) [Example 239, 4-(1,4-dioxan-2-yl)-N-{6-[(3-ethyl-1H-pyrazol-5-yl)amino]-5-methoxy-1,2-benzoxazol-3-yl}-2,6-dimethoxybenzene-1-sulfonamide], the figures for the Ki (at KAT6A Full length enzyme (setting [2]); in assay [1] (setting [3])) were 2.1 nM and 14.1 nM, respectively.
`COc1cc2c(NS(=O)(=O)c3c(OC)cc(CN4CCC[C@@H](F)C4)cc3OC)noc2cc1Nc1cc(C2CC2)n[nH]1` (single isomer, unassigned) [Example 198, N-{6-[(3-cyclopropyl-1H-pyrazol-5-yl)amino]-5-methoxy-1,2-benzoxazol-3-yl}-4-[(3-fluoropiperidin-1-yl)methyl]-2,6-dimethoxybenzene-1-sulfonamide]: the Ki at KAT6A Full length enzyme (setting [2]) is 1.1 nM; in assay [1] (setting [3]), 5.9 nM.
For `COc1cc2c(NS(=O)(=O)c3c(OC)cccc3OC)noc2cc1Nc1[nH]nc2c1CNC2` [Example 49, 2,6-dimethoxy-N-{5-methoxy-6-[(2,4,5,6-tetrahydropyrrolo[3,4-c]pyrazol-3-yl)amino]-1,2-benzoxazol-3-yl}benzene-1-sulfonamide], the Ki at KAT6A Full length enzyme (setting [2]) is 4 nM; in assay [1] (setting [3]), over 2340 nM.
On the same counts, the results for `COc1cc2c(NS(=O)(=O)c3c(OC)cc(CN4CCC(F)(F)C4)cc3OC)noc2cc1Nc1cc(C2CC2)n[nH]1` [Example 196, N-{6-[(3-cyclopropyl-1H-pyrazol-5-yl)amino]-5-methoxy-1,2-benzoxazol-3-yl}-4-[(3,3-difluoropyrrolidin-1-yl)methyl]-2,6-dimethoxybenzene-1-sulfonamide] are 0.9 nM and 4 nM.
